According to PMC3378952, “Plasmodium subtilisin-like protease 1 (SUB1): Insights into the active-site structure, specificity and function of a pan-malaria drug target” (International Journal for Parasitology, 2012):
Values joined by “and” are separate entries in the source; they are usually repeats but may differ in a detail not shown here. Equal entries are not always repeated. *1 amine or outer side, *2 acyl side, *3 side chain or, on linkers, in order; H or OH if unused. Where a SMILES comes first, the peptide text is derived from it. Where no end group is shown, it is not given here. [ ]: non-standard residue; d: D form. The star is where a group is joined. ξ: configuration not given here. ξ3Amino2oxobutanoyl = CC(N[*:1])C(=O)C(=O)[*:2]; Abu(ψCOCO) = CC[C@H](N[*:1])C(=O)C(=O)[*:2]; AMC = Cc1cc(=O)oc2cc(N*)ccc12; βAla = NCCC(=O)O; NHcPr = C1CC1N*

Legend:
rPfSUB1cat [1] = biological target: T1, rPfSUB1cat (Plasmodium falciparum, UniProt Q8I0V0); assay: Cleavage of unlabelled and AMC peptide substrates by rPfSUB1cat (RP-HPLC); type: biochemical; details: for hydrolysis by rPfSUB1cat: prolonged incubations, data not shown; for reduction of substrate peak intensity: by 120 min digestion of equimolar mixture, RP-HPLC
T1 construct: core domain (rPfSUB1cat) comprising Ser328 to Tyr671; made in house; host or cells: baculovirus-infected insect cells (Tn5), then limited chymotrypsin digestion
Source text: (SERA4st1F-6R12); Ac-CITAQDDEEC (called SERA4st1F-6R); and Ac-[…] (SERA4st1F-6R-S). […] Initial hydrolysis rates were then plotted against inhibitor concentration.
In a third approach to investigating the role of prime side interactions in PfSUB1–substrate recognition, we produced a modified form of the SERA4st1 peptide substrate (called SERA4st1-ADA) in which both the P1′ and P3′ residues were replaced by Ala. Based on our MD data, these substitutions would be predicted to abolish potentially important stabilizing interactions with the S′ surface of the enzyme. To compare cleavage efficiencies of SERA4st1 and SERA4st1-ADA, we used a previously-described method in which an equimolar mixture of the two peptides was supplemented with rPfSUB1cat and the rates of peptide hydrolysis established by RP-HPLC analysis of the resulting digestion products ([Child et al., 2010]). Under such conditions, because the peptides effectively act as competing substrates, their relative initial rates of hydrolysis are solely a function of the ability of PfSUB1 to discriminate between them, and so are directly proportional to their relative kcat/Km values, irrespective of their concentration ([Cornish-Bowden, 2004]).

PbSUB1 = biological target: T2, PbSUB1 (Plasmodium berghei, UniProt A0A509AM03); assay: biochemical
T2 construct: recombinant Plasmodium falciparum SUB1 catalytic domain (rPfSUB1cat; closed circles) and rPbSUB1cat (closed triangles); 6-His (C); made in house; host or cells: baculovirus-infected insect cells (Tn5), then limited chymotrypsin digestion
T2 sequence (A0A509AM03 257-574): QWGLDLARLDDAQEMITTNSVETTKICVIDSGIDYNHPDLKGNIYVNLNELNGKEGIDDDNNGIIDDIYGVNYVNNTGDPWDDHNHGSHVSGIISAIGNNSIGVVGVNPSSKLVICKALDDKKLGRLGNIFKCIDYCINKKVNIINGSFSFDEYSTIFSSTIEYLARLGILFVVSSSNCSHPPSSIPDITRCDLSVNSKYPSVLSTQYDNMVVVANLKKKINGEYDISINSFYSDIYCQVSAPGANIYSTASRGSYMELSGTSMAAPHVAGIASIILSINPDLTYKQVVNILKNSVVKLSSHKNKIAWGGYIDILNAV
Source text: (§1) Initial hydrolysis rates were then plotted against inhibitor concentration.

rPvSUB1 = biological target: T3, rPvSUB1 (Plasmodium vivax, UniProt E6Y8B9); assay: biochemical; details: IC50 against rPvSUB1, dose-response
T3 construct: 6-His (C); made in house; host or cells: baculovirus-infected insect cells (Tn5), then limited chymotrypsin digestion
T3 sequence (E6Y8B9 287-604): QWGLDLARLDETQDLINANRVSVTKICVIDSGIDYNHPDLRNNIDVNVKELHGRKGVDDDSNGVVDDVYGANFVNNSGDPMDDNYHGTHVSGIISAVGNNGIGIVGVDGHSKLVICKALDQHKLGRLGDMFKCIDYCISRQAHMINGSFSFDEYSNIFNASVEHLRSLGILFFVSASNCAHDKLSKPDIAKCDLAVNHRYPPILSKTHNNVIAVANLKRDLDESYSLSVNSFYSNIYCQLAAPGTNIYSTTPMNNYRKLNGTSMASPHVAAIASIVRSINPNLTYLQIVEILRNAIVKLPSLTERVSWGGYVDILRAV
Source text: as §1

[2] = biological target: rPfSUB1cat (recombinant P. falciparum SUB1 catalytic domain) (Plasmodium falciparum, UniProt Q8I0V0); assay: biochemical; details: for IC50: IC50 for steady-state inhibition of rPfSUB1cat, dose-response, substrate 0.1 μM
PfSUB1 = details: cited from earlier work
rPfSUB1cat [3] = biological target: T1, rPfSUB1cat; type: biochemical; details: substrates 0.1 μM
Source text: as §1

rPbSUB1cat = details: substrates 0.1 μM
Source text: as §1

rPbSUB1 = biological target: T4, rPbSUB1 (Plasmodium berghei, UniProt A0A509AM03); assay: Cleavage of unlabelled N-acetylated decapeptides by rPbSUB1 (RP-HPLC); type: biochemical; details: RP-HPLC examination of digestion products
T4 construct: recombinant Plasmodium falciparum SUB1 catalytic domain (rPfSUB1cat; closed circles) and rPbSUB1cat (closed triangles); 6-His (C); made in house; host or cells: baculovirus-infected insect cells (Tn5), then limited chymotrypsin digestion
T4 sequence (A0A509AM03 257-574): as the sequence (A0A509AM03 257-574) above

[4] = biological target: T5, recombinant Plasmodium falciparum subtilisin-like protease 1 (rPfSUB1), p54/p47 protease species (Plasmodium falciparum, UniProt O61142 218-690); assay: cell-based or functional assay
T5 sequence: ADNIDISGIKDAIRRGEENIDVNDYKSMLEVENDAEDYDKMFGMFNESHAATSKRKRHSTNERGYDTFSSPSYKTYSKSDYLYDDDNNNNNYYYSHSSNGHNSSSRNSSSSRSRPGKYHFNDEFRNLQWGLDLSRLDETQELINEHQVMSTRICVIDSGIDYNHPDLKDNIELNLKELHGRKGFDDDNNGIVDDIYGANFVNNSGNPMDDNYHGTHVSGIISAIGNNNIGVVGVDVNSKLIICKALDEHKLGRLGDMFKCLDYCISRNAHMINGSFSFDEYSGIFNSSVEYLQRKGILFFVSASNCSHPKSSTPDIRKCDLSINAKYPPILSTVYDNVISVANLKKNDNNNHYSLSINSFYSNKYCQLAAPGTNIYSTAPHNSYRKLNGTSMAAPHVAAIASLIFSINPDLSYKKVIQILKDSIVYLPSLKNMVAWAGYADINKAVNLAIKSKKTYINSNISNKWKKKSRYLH

[5] = ref Withers-Martinez et al., 2002

CC[C@H](C)[C@H](NC(=O)[C@H](CCCCN)NC(C)=O)C(=O)N[C@H](C(=O)N[C@@H](C)C(=O)N[C@@H](CCC(N)=O)C(=O)Nc1ccc2c(C)cc(=O)oc2c1)[C@@H](C)O [Ac-KITAQ-AMC] (Ac-KITAQ-{AMC})
hydrolysis by rPfSUB1cat (rPfSUB1cat [1]): completely resistant to hydrolysis

CC[C@H](NC(=O)[C@H](C)NC(=O)[C@@H](NC(=O)[C@@H](NC(=O)[C@H](CCCCN)NC(C)=O)[C@@H](C)CC)[C@@H](C)O)C(=O)C(=O)NC1CC1 [KS-182] (Ac-KITA[Abu(ψCOCO)]-NHcPr)
IC50 (PbSUB1): ≥ 100 µM
IC50 (rPvSUB1): ~12 µM and 12 µM
Ki [2]: 7.3 µM
IC50 [2]: ~6 µM and 6 µM

CC[C@H](C)[C@H](NC(=O)[C@H](CCCCN)NC(C)=O)C(=O)N[C@H](C(=O)N[C@@H](C)C(=O)NC(C)C(=O)C(=O)NCCC(=O)O)[C@@H](C)O (stereo partly shown) [KS-466] (Ac-KITA[ξ3Amino2oxobutanoyl][βAla]-OH)
IC50 (rPvSUB1): 2 µM and ~2 µM
Ki [2]: 0.7 µM
IC50 [2]: 1 µM and ~1 µM

O=S(=O)(F)Cc1ccccc1 [PMSF, phenylmethylsulfonyl fluoride]
effect of PMSF on PfSUB1 (PfSUB1; [5]): unaffected

O=C(O)c1cc[c]([Hg][OH])cc1 [pHMB, para-hydroxymercuribenzoate]
inhibition of PfSUB1 by pHMB (PfSUB1; [5]): potently inhibited

Ac-CITAQSDEEC (cysteine pairing not given here) [SERA4st1F-6R-S]
effect of P1′ Asp to Ser substitution (vs SERA4st1F-6R) on cleavage by rPfSUB1cat (rPfSUB1cat [3]): no significant effect
fold increase in initial hydrolysis rate by rPbSUB1cat vs SERA4st1F-6R (rPbSUB1cat): 5.8 fold

Ac-DVSGQ↓SENHQ [Ac-DVSGQ ↓ SENHQ]
cleavage by rPbSUB1 at the expected position (rPbSUB1): correctly cleaved

Ac-EIKAET
hydrolysis by rPfSUB1cat (rPfSUB1cat [1]): No hydrolysis

Ac-KITAQADAES [SERA4st1-ADA, SERA4st1 with P1′ and P3′ residues replaced by Ala]
reduction of substrate peak intensity (rPfSUB1cat [1]): ~1%
initial cleavage rate, fold lower than that of parental SERA4st1 (rPfSUB1cat [1]; equimolar mixture of both peptides, SERA4st1 digested ⩽20%): at least 80 fold

Ac-KITAQDDEES [SERA4st1, N-acetylated decapeptide based on a PfSUB1 processing site in SERA4]
reduction of substrate peak intensity (rPfSUB1cat [1]): 84.6%

Ac-TTRAE↓SEEDI [Ac-TTRAE ↓ SEEDI]
cleavage by rPbSUB1 at the expected position (rPbSUB1): correctly cleaved

Ac-TTSGQ↓SSTEP [Ac-TTSGQ ↓ SSTEP]
cleavage by rPbSUB1 at the expected position (rPbSUB1): correctly cleaved

Ac-VVTGE↓SEETS [Ac-VVTGE ↓ SEETS]
cleavage by rPbSUB1 at the expected position (rPbSUB1): correctly cleaved

B1: PfSUB1 prodomain (PD) released by autocatalytic cleavage of rPfSUB1 (domain or fragment)
chain: KEVRSEENGKIQDDAKKIVSELRFLEKVEDVIEKSNIGGNEVDADENSFNPDTEVPIEEIEEIKMRELKDVKEEKNKNDNHNNNNNNNNISSSSSSSSNTFGEEKEEVSKKKKKLRLIVSENHATTPSFFQESLLEPDVLSFLESKGNLSNLKNINSMIIELKEDTTDDELISYIKILEEKGALIESDKLVS
initial rate of cleavage of fluorogenic substrate SERA4st1F-6R12 (0.1 uM) by rPfSUB1cat (prodomain largely degraded) against an equivalent mass of untreated rPfSUB1 (with its prodomain) [4]: 9.8 fold
inhibitor potency against cognate enzyme (PfSUB1; ref Jean et al., 2003): ~0.005 µM
